Measurements published in the supplement of paper PMC11208160.
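Further: IS621 recombinase and bridge RNA in Escherichia coli cells.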

Test: recombinant barcode read abundance after kanamycin selection (control-corrected) (log10(CPM+1)); higher = more efficient recombination; sequences stand for … in AGTGCAGAGAAAATCGGCCAGTTTTCTCTGCCTGCAGTCCGCATGCCGT…AGATTTATGCAGCGGACTGCCTTTCTCCCAAAGTGATAAACCGGACAGTATCATGGACCGGTTTTCCCGGTAATCCGTATTTGCAAGGTTGGTTTCACT; site = the 11-nt target
Summary of the method: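 This pooled E. coli screen matched targets with IS621 bridge RNA target-binding loops. Plating was done in duplicate on chloramphenicol/ampicillin LB agar as a control and on chloramphenicol/ampicillin/kanamycin plus 0.1 mM IPTG. Recombination efficiency reflects barcode counts at recombinant junctions as counts per million, averaged and control-corrected. The figures are log10(CPM+1).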
For “GGGGCCTCTTGGGTTCTAACCTGTTGCTT (site GGGGCATCTAA)”, the “recombinant barcode read abundance (log10)” value was 0.481.
With “GGGGCCTCTTGGGTTCTAACCTGTTGCTT (site GGGGCCTCTAA)” the “recombinant barcode read abundance (log10)” value was 2.59.
For “GGGGCCTCTTGGGTTCTAACCTGTTGCTT (site GGGGCGTCTAA)”, the “recombinant barcode read abundance (log10)” value was 0.225.
With “GGGGCCTCTTGGGTTCTAACCTGTTGCTT (site GGGGCTTCTAA)” the “recombinant barcode read abundance (log10)” value was 0.398.
In the case of “GGGGCGGCTTGGGTTCTAACCTGTTGCCT (site GGGGCGACTAG)”, the “recombinant barcode read abundance (log10)” value is reported as 0.489.
With “GGGGCGGCTTGGGTTCTAACCTGTTGCCT (site GGGGCGCCTAG)” the “recombinant barcode read abundance (log10)” value was 0.0428.
With “GGGGCGGCTTGGGTTCTAACCTGTTGCCT (site GGGGCGGCTAG)” the “recombinant barcode read abundance (log10)” value was 1.8.
With “GGGGCGGCTTGGGTTCTAACCTGTTGCCT (site GGGGCGTCTAG)” the “recombinant barcode read abundance (log10)” value was 0.242.
With “GGGGCGTCTTGGGTTCTAACCTGTTGCCG (site GGGCAGTCTCG)” the “recombinant barcode read abundance (log10)” value was 0.201.
For “GGGGCGTCTTGGGTTCTAACCTGTTGCCG (site GGGGCGTCTCG)”, the “recombinant barcode read abundance (log10)” value was 1.63.
In the case of “GGGGCGTCTTGGGTTCTAACCTGTTGCCT (site GGGGCGACTAG)”, the “recombinant barcode read abundance (log10)” value is reported as 0.167.
With “GGGGCGTCTTGGGTTCTAACCTGTTGCCT (site GGGGCGCCTAG)” the “recombinant barcode read abundance (log10)” value was 0.426.
In the case of “GGGGCGTCTTGGGTTCTAACCTGTTGCCT (site GGGGCGGCTAG)”, the “recombinant barcode read abundance (log10)” value is reported as 0.172.
For “GGGGCGTCTTGGGTTCTAACCTGTTGCCT (site GGGGCGTCTAG)”, the “recombinant barcode read abundance (log10)” value was 1.55.
With “GGGGCGTCTTGGGTTCTAACCTGTTGCTG (site GGGGCGTCTCA)” the “recombinant barcode read abundance (log10)” value was 2.44.
In the case of “GGGGCGTCTTGGGTTCTAACCTGTTGCTG (site TCCATAACTAG)”, the “recombinant barcode read abundance (log10)” value is reported as 0.175.
For “GGGGCTTCTTGGGTTCTAACCTGTTGCCT (site GAGGCTTCTAG)”, the “recombinant barcode read abundance (log10)” value was 0.0126.
With “GGGGCTTCTTGGGTTCTAACCTGTTGCCT (site GCGGCTTCTAG)” the “recombinant barcode read abundance (log10)” value was 0.207.
With “GGGGCTTCTTGGGTTCTAACCTGTTGCCT (site GGGGCTTCTAG)” the “recombinant barcode read abundance (log10)” value was 0.919.
In the case of “GGGGCTTCTTGGGTTCTAACCTGTTGCCT (site GTGGCTTCTAG)”, the “recombinant barcode read abundance (log10)” value is reported as 0.245.
In the case of “GGGGTATCTTGGGTTCTAACCTGTTGCCT (site GCGGTATCTAG)”, the “recombinant barcode read abundance (log10)” value is reported as 0.0929.
For “GGGGTATCTTGGGTTCTAACCTGTTGCCT (site GGGGTATCTAG)”, the “recombinant barcode read abundance (log10)” value was 1.21.
For “GGGTAAACTTGGGTTCTAACCTGTTGCCT (site GGGTAAACTAG)”, the “recombinant barcode read abundance (log10)” value was 0.953.
For “GGGTAAACTTGGGTTCTAACCTGTTGCCT (site GGGTAATCTAG)”, the “recombinant barcode read abundance (log10)” value was 0.702.
In the case of “GGGTAACCTTGGGTTCTAACCTGTTGCCT (site AGGTAACCTAG)”, the “recombinant barcode read abundance (log10)” value is reported as 0.
With “GGGTAACCTTGGGTTCTAACCTGTTGCCT (site CGGTAACCTAG)” the “recombinant barcode read abundance (log10)” value was 0.064.
With “GGGTAACCTTGGGTTCTAACCTGTTGCCT (site GGGTAACCTAG)” the “recombinant barcode read abundance (log10)” value was 0.406.
For “GGGTAACCTTGGGTTCTAACCTGTTGCCT (site TGGTAACCTAG)”, the “recombinant barcode read abundance (log10)” value was 0.19.
In the case of “GGGTCCACTTGGGTTCTAACCTGTTGCCA (site GGGTCCACTCC)”, the “recombinant barcode read abundance (log10)” value is reported as 0.127.
In the case of “GGGTCCACTTGGGTTCTAACCTGTTGCCA (site GGGTCCACTTG)”, the “recombinant barcode read abundance (log10)” value is reported as 1.44.
In the case of “GGGTCCTCTTGGGTTCTAACCTGTTGCCA (site GGGTCCTCTAG)”, the “recombinant barcode read abundance (log10)” value is reported as 1.69.
In the case of “GGGTCCTCTTGGGTTCTAACCTGTTGCCA (site GGGTCCTCTCG)”, the “recombinant barcode read abundance (log10)” value is reported as 0.29.
For “GGGTCCTCTTGGGTTCTAACCTGTTGCCA (site GGGTCCTCTGG)”, the “recombinant barcode read abundance (log10)” value was 0.0677.
For “GGGTCCTCTTGGGTTCTAACCTGTTGCCA (site GGGTCCTCTTG)”, the “recombinant barcode read abundance (log10)” value was 1.29.
For “GGGTCCTCTTGGGTTCTAACCTGTTGCCT (site GGGTCCTCTAG)”, the “recombinant barcode read abundance (log10)” value was 2.24.
For “GGGTCCTCTTGGGTTCTAACCTGTTGCCT (site GGGTCCTCTCG)”, the “recombinant barcode read abundance (log10)” value was 0.776.
In the case of “GGGTCCTCTTGGGTTCTAACCTGTTGCCT (site GGGTCCTCTGG)”, the “recombinant barcode read abundance (log10)” value is reported as 0.578.
In the case of “GGGTCCTCTTGGGTTCTAACCTGTTGCCT (site GGGTCCTCTTG)”, the “recombinant barcode read abundance (log10)” value is reported as 0.155.
With “GGGTCGGCTTGGGTTCTAACCTGTTGCGA (site GGGTCGGCTAC)” the “recombinant barcode read abundance (log10)” value was 0.231.
For “GGGTCGGCTTGGGTTCTAACCTGTTGCGA (site GGGTCGGCTCC)”, the “recombinant barcode read abundance (log10)” value was 0.552.
For “GGGTCGGCTTGGGTTCTAACCTGTTGCGA (site GGGTCGGCTGC)”, the “recombinant barcode read abundance (log10)” value was 0.179.
With “GGGTCGGCTTGGGTTCTAACCTGTTGCGA (site GGGTCGGCTTC)” the “recombinant barcode read abundance (log10)” value was 2.27.
With “GGTAAAGCTTGGGTTCTAACCTGTTGCCT (site GGTAAAGCTAG)” the “recombinant barcode read abundance (log10)” value was 0.71.
With “GGTAAAGCTTGGGTTCTAACCTGTTGCCT (site GGTATAGCTAG)” the “recombinant barcode read abundance (log10)” value was 0.216.
For “GGTAATACTTGGGTTCTAACCTGTTGCAT (site AACGTACCTTG)”, the “recombinant barcode read abundance (log10)” value was 0.191.
In the case of “GGTAATACTTGGGTTCTAACCTGTTGCAT (site GGTAATACTAT)”, the “recombinant barcode read abundance (log10)” value is reported as 0.957.
With “GGTACGCCTTGGGTTCTAACCTGTTGCAT (site GGTACGACTCT)” the “recombinant barcode read abundance (log10)” value was 0.17.
For “GGTACGCCTTGGGTTCTAACCTGTTGCAT (site GGTACGCCTAT)”, the “recombinant barcode read abundance (log10)” value was 0.685.
In the case of “GGTAGGACTTGGGTTCTAACCTGTTGCCT (site AGTAGGACTAG)”, the “recombinant barcode read abundance (log10)” value is reported as 0.239.
In the case of “GGTAGGACTTGGGTTCTAACCTGTTGCCT (site CGTAGGACTAG)”, the “recombinant barcode read abundance (log10)” value is reported as 0.0936.
In the case of “GGTAGGACTTGGGTTCTAACCTGTTGCCT (site GGTAGGACTAG)”, the “recombinant barcode read abundance (log10)” value is reported as 0.278.
In the case of “GGTAGGACTTGGGTTCTAACCTGTTGCCT (site TGTAGGACTAG)”, the “recombinant barcode read abundance (log10)” value is reported as 0.0335.
With “GGTATGACTTGGGTTCTAACCTGTTGCCT (site AGTATGACTAG)” the “recombinant barcode read abundance (log10)” value was 0.595.
For “GGTATGACTTGGGTTCTAACCTGTTGCCT (site CGTATGACTAG)”, the “recombinant barcode read abundance (log10)” value was 0.197.
For “GGTATGACTTGGGTTCTAACCTGTTGCCT (site GGTATGACTAG)”, the “recombinant barcode read abundance (log10)” value was 0.956.
For “GGTATGACTTGGGTTCTAACCTGTTGCCT (site TGTATGACTAG)”, the “recombinant barcode read abundance (log10)” value was 0.0723.
With “GGTATGTCTTGGGTTCTAACCTGTTGCCT (site AGTATGTCTAG)” the “recombinant barcode read abundance (log10)” value was 0.204.
With “GGTATGTCTTGGGTTCTAACCTGTTGCCT (site CGTATGTCTAG)” the “recombinant barcode read abundance (log10)” value was 0.0446.
For “GGTATGTCTTGGGTTCTAACCTGTTGCCT (site GGTATGTCTAG)”, the “recombinant barcode read abundance (log10)” value was 1.96.
With “GGTATGTCTTGGGTTCTAACCTGTTGCCT (site TGTATGTCTAG)” the “recombinant barcode read abundance (log10)” value was 0.106.
For “GGTCATTCTTGGGTTCTAACCTGTTGCCT (site GGTCATACTAG)”, the “recombinant barcode read abundance (log10)” value was 0.0311.
With “GGTCATTCTTGGGTTCTAACCTGTTGCCT (site GGTCATCCTAG)” the “recombinant barcode read abundance (log10)” value was 0.157.
With “GGTCATTCTTGGGTTCTAACCTGTTGCCT (site GGTCATGCTAG)” the “recombinant barcode read abundance (log10)” value was 0.0124.
For “GGTCATTCTTGGGTTCTAACCTGTTGCCT (site GGTCATTCTAG)”, the “recombinant barcode read abundance (log10)” value was 0.626.
For “GGTCGGACTTGGGTTCTAACCTGTTGCCA (site GGACGGACTTG)”, the “recombinant barcode read abundance (log10)” value was 0.281.
In the case of “GGTCGGACTTGGGTTCTAACCTGTTGCCA (site GGTCGGACTTG)”, the “recombinant barcode read abundance (log10)” value is reported as 0.548.
For “GGTCGGACTTGGGTTCTAACCTGTTGCGT (site GGAGGGACTAC)”, the “recombinant barcode read abundance (log10)” value was 0.0819.
For “GGTCGGACTTGGGTTCTAACCTGTTGCGT (site GGTCGGACTAC)”, the “recombinant barcode read abundance (log10)” value was 2.17.
With “GGTCGTACTTGGGTTCTAACCTGTTGCCT (site CCGTTGTCTTA)” the “recombinant barcode read abundance (log10)” value was 0.177.
For “GGTCGTACTTGGGTTCTAACCTGTTGCCT (site GGTCGTACTAG)”, the “recombinant barcode read abundance (log10)” value was 0.286.
For “GGTGAGCCTTGGGTTCTAACCTGTTGCGT (site CACACTACTCA)”, the “recombinant barcode read abundance (log10)” value was 0.0427.
With “GGTGAGCCTTGGGTTCTAACCTGTTGCGT (site GGTGAGCCTAC)” the “recombinant barcode read abundance (log10)” value was 2.68.
For “GGTGCCTCTTGGGTTCTAACCTGTTGCAT (site GGGGCCTCTCT)”, the “recombinant barcode read abundance (log10)” value was 0.258.
With “GGTGCCTCTTGGGTTCTAACCTGTTGCAT (site GGTGCCTCTAT)” the “recombinant barcode read abundance (log10)” value was 1.46.
For “GGTGCGGCTTGGGTTCTAACCTGTTGCCT (site AGTGCGGCTAG)”, the “recombinant barcode read abundance (log10)” value was 0.492.
With “GGTGCGGCTTGGGTTCTAACCTGTTGCCT (site CGTGCGGCTAG)” the “recombinant barcode read abundance (log10)” value was 0.139.
With “GGTGCGGCTTGGGTTCTAACCTGTTGCCT (site GGTGCGGCTAG)” the “recombinant barcode read abundance (log10)” value was 0.494.
